Results taken from PubChem BioAssay (NCI).
Where “and” joins values, the source holds several entries; their conditions need not be identical. Equal entries are not always repeated.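 Five concentrations, 48 hours, 96-well plates. Abbreviation: GI50, concentration required for 50% inhibition of growth. TGI is the concentration that stops growth completely.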

Key:
Test in all cases: NCI-60 cell line screen, 48 h
OVCAR-3 ovarian = system: OVCAR-3 ovarian
M14 melanoma = system: M14 melanoma
SW-620 colon = system: SW-620 colon
NCI-H226 lung = system: NCI-H226 lung
OVCAR-8 ovarian = system: OVCAR-8 ovarian
786-0 renal = system: 786-0 renal
NCI-H522 lung = system: NCI-H522 lung
HCC-2998 colon = system: HCC-2998 colon
RPMI-8226 leukemia = system: RPMI-8226 leukemia
MDA-MB-435 = system: MDA-MB-435
CAKI-1 renal = system: CAKI-1 renal
T-47D breast = system: T-47D breast

COc1ccc(-c2c(C#N)c(S)n(C3OC(COC(C)=O)C(OC(C)=O)C(OC(C)=O)C3OC(C)=O)c(=O)c2C#N)cc1 (stereo not given)
GI50 (OVCAR-3 ovarian): > 100 µM and 23.8 µM
TGI (OVCAR-3 ovarian): > 100 µM and 61.6 µM
TGI (M14 melanoma): > 100 µM
TGI (SW-620 colon): > 100 µM
TGI (NCI-H226 lung): > 100 µM
TGI (OVCAR-8 ovarian): > 100 µM
TGI (786-0 renal): > 100 µM and 80.9 µM
GI50 (NCI-H522 lung): 88.4 µM and 29.7 µM
TGI (NCI-H522 lung): > 100 µM and 65.4 µM
TGI (HCC-2998 colon): 98.9 µM and 64.6 µM
GI50 (RPMI-8226 leukemia): > 100 µM and 23.4 µM
TGI (RPMI-8226 leukemia): > 100 µM and 60.5 µM
GI50 (MDA-MB-435): 56.9 µM and 21.3 µM
TGI (MDA-MB-435): > 100 µM and 50.6 µM
TGI (CAKI-1 renal): 56.4 µM and 98.8 µM
TGI (T-47D breast): > 100 µM and 52.5 µM

c1sc(NC2=NCCO2)c2c1CCCC2
TGI (OVCAR-3 ovarian): > 100 µM
TGI (M14 melanoma): > 100 µM
TGI (SW-620 colon): > 100 µM
TGI (NCI-H226 lung): > 100 µM
TGI (OVCAR-8 ovarian): > 100 µM
TGI (786-0 renal): > 100 µM
TGI (NCI-H522 lung): > 100 µM
TGI (HCC-2998 colon): > 100 µM
TGI (RPMI-8226 leukemia): > 100 µM
TGI (MDA-MB-435): > 100 µM
TGI (CAKI-1 renal): > 100 µM
TGI (T-47D breast): > 100 µM

C[C@]12OC[C@H](c3ccccc3)N1C(=O)C1[C@H]2CC12SCCS2 (stereo not given in full)
TGI (OVCAR-3 ovarian): > 100 µM
TGI (M14 melanoma): > 100 µM
TGI (SW-620 colon): > 100 µM
TGI (NCI-H226 lung): > 100 µM
TGI (OVCAR-8 ovarian): > 100 µM
TGI (786-0 renal): > 100 µM
TGI (NCI-H522 lung): > 100 µM
TGI (HCC-2998 colon): > 100 µM
TGI (RPMI-8226 leukemia): > 100 µM
TGI (MDA-MB-435): > 100 µM
TGI (CAKI-1 renal): > 100 µM
TGI (T-47D breast): > 100 µM
